The text below walks through data of patent EP2818472A1, “Imidazo[4,5-c]pyridine and pyrrolo[3,2-c]pyridine compounds as G-protein-coupled receptor kinase 5 (GRK5) modulators” (Max-Planck-Gesellschaft zur Förderung der Wissenschaften …, priority 2013, dated 2014).

The test concerns beta-TC6 cells. Put plainly: Insulin HTRF assay (relative activity Ar) in beta-TC6 cells. Type of test: cell-based, mouse. As to conditions: Mus musculus, Beta-TC6, 4 h, insulin HTRF, supernatant of beta-TC6 cells, incubation with test compound at 37°C for 2, 3, 4h; read-out: Ar (relative activity). An outline of the steps: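 beta-TC6 cells (15k/well, seeded 24 or 48 h) washed, then exposed to compound in induction buffer (0.5% DMSO final) for 2, 3 or 4 h at 37°C.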
A general note: TR-FRET usually uses a lanthanide donor and a delayed reading to cut background.
Consider `CN1CCN(c2ccc(Nc3cc4[nH]c(-c5ccc(C(=O)N(C)C)cc5)cc4cn3)cc2)CC1` [Compound 26, N,N-dimethyl-4-[6-[4-(4-methylpiperazin-1-yl)anilino]-1H-pyrrolo[3,2-c]pyridin-2-yl]benzamide], for which the Emax was in the range of 50 to 100%.
`COc1ccc(Nc2nccc3c2cc(-c2ccc(C(=O)N(C)C)cc2)n3C)cc1OC` [Compound 215, 4-[4-(3,4-dimethoxyanilino)-1-methyl-pyrrolo[3,2-c]pyridin-2-yl]-N,N-dimethyl-benzamide]: the Emax lay within 50 to 100%.
With `COc1ccc(CNc2nc3cnc(Nc4cc(OC)c(OC)c(OC)c4)cc3n2C)cc1OC` [Compound 599, N2-[(3,4-dimethoxyphenyl)methyl]-1-methyl-N6-(3,4,5-trimethoxyphenyl)imidazo[4,5-c]pyridine-2,6-diamine], the Emax was in the range of 50 to 100%.
On to `Cn1c(-c2ccccc2)nc2cnc(-c3ccc(N)nc3)cc21` [Compound 735, 5-(1-methyl-2-phenyl-imidazo[4,5-c]pyridin-6-yl)pyridin-2-amine], for which the Emax is 30 to 50%.
Consider `Oc1cccc(Nc2cc3[nH]c(-c4cccc(F)c4)cc3cn2)c1` [Compound 10, 3-[[2-(3-fluorophenyl)-1H-pyrrolo[3,2-c]pyridin-6-yl]amino]phenol], for which the Emax is 50 to 100%.
As for `COc1ccc(Nc2nccc3[nH]c(-c4ccc5c(c4)OCCO5)nc23)cc1` [Compound 414, 2-(2,3-dihydro-1,4-benzodioxin-6-yl)-N-(4-methoxyphenyl)-1H-imidazo[4,5-c]pyridin-4-amine], the figure is 50 to 100%; as for `CSc1ccc(Nc2cc3c(cn2)cc(-c2cnn(C)c2)n3C)cc1` [Compound 153, 1-methyl-2-(1-methylpyrazol-4-yl)-N-(4-methylsulfanylphenyl)pyrrolo[3,2-c]pyridin-6-amine], 30 to 50%; as for `CNc1nc2cnc(Nc3ccc(N4CCOCC4)cc3)cc2n1Cc1ccco1` [Compound 521, 1-(2-furylmethyl)-N2-methyl-N6-(4-morpholinophenyl)imidazo[4,5-c]pyridine-2,6-diamine], > 100%.
To `Cn1cc(-c2cc3cnc(Nc4ccc(S(C)(=O)=O)cc4)cc3n2C)cn1` [Compound 152, 1-methyl-2-(1-methylpyrazol-4-yl)-N-(4-methylsulfonylphenyl)pyrrolo[3,2-c]pyridin-6-amine] belongs > 100%; to `CNc1nc2cnc(Nc3ccc(OC)cc3OC)cc2n1-c1cc(OC)c(OC)c(OC)c1` [Compound 486, N6-(2,4-dimethoxyphenyl)-N2-methyl-1-(3,4,5-trimethoxyphenyl)imidazo[4,5-c]pyridine-2,6-diamine], 30 to 50%.
As for `COc1ccc(-c2cc3c(cn2)nc(Nc2ccccc2)n3C)cc1` [Compound 847, 6-(4-methoxyphenyl)-1-methyl-N-phenyl-imidazo[4,5-c]pyridin-2-amine], the figure is 30 to 50%; as for `COCCNc1nc2cnc(-c3ccc(OC)cc3C)cc2n1C` [Compound 859, N-(2-methoxyethyl)-6-(4-methoxy-2-methyl-phenyl)-1-methyl-imidazo[4,5-c]pyridin-2-amine], 30 to 50%.
On to `COc1cccc(Nc2nccc3[nH]c(-c4ccc(OC)c(OC)c4)nc23)c1` [Compound 341, 2-(3,4-dimethoxyphenyl)-N-(3-methoxyphenyl)-1H-imidazo[4,5-c]pyridin-4-amine], for which the Emax is 50 to 100%.
As for `CNc1nc2cnc(Nc3ccc(OC)cc3)cc2n1-c1ccccc1` [Compound 509, N6-(4-methoxyphenyl)-N2-methyl-1-phenyl-imidazo[4,5-c]pyridine-2,6-diamine], the figure is 50 to 100%; as for `Cn1c(-c2ccco2)nc2cnc(-c3cccc(OC(F)(F)F)c3)cc21` [Compound 756, 2-(2-furyl)-1-methyl-6-[3-(trifluoromethoxy)phenyl]imidazo[4,5-c]pyridine], 0 to 30%; as for `COc1ccc(-c2nc3c(Nc4cccc(S(C)(=O)=O)c4)nccc3[nH]2)cc1OC` [Compound 351, 2-(3,4-dimethoxyphenyl)-N-(3-methylsulfonylphenyl)-1H-imidazo[4,5-c]pyridin-4-amine], 50 to 100%.
To `Cn1c(-c2ccsc2)cc2c(Nc3ccc(O)cc3)nccc21` [Compound 271, 4-[[1-methyl-2-(3-thienyl)pyrrolo[3,2-c]pyridin-4-yl]amino]phenol] belongs 50 to 100%; to `Cn1cncc1-c1cc2cnc(Nc3cccc(Cl)c3)cc2[nH]1` [Compound 103, N-(3-chlorophenyl)-2-(3-methylimidazol-4-yl)-1H-pyrrolo[3,2-c]pyridin-6-amine], 30 to 50%.
For the molecule `COCc1nc2cnc(Nc3cc(OC)c(OC)c(OC)c3)cc2n1C` [Compound 745, 2-(methoxymethyl)-1-methyl-N-(3,4,5-trimethoxyphenyl)imidazo[4,5-c]pyridin-6-amine], the Emax is 30 to 50%.
To `CNc1nc2cnc(Nc3ccc(NC(C)=O)cc3)cc2n1Cc1ccccc1` [Compound 527, N-[4-[[1-benzyl-2-(methylamino)imidazo[4,5-c]pyridin-6-yl]amino]phenyl]acetamide] belongs 50 to 100%; to `COc1cccc(-c2nc3c(Nc4cccc(O)c4)nccc3[nH]2)c1` [Compound 374, 3-[[2-(3-methoxyphenyl)-1H-imidazo[4,5-c]pyridin-4-yl]amino]phenol], 50 to 100%.
As for `CS(=O)(=O)Nc1cccc(Nc2nccc3[nH]c(-c4ccsc4)cc23)c1` [Compound 265, N-[3-[[2-(3-thienyl)-1H-pyrrolo[3,2-c]pyridin-4-yl]amino]phenyl]methanesulfonamide], the figure is 50 to 100%; as for `CC(=O)N(C)c1cccc(-c2cc3cnc(Nc4ccc5c(c4)OCO5)cc3n2C)c1` [Compound 169, N-[3-[6-(1,3-benzodioxol-5-ylamino)-1-methyl-pyrrolo[3,2-c]pyridin-2-yl]phenyl]-N-methyl-acetamide], 30 to 50%; as for `COc1ccc(Cn2cnc3cnc(Nc4ccc(NC(C)=O)cc4)cc32)cc1OC` [Compound 730, N-[4-[[1-[(3,4-dimethoxyphenyl)methyl]imidazo[4,5-c]pyridin-6-yl]amino]phenyl]acetamide], 50 to 100%.
Consider `CNc1nc2cnc(Nc3ccc(OC)cc3)cc2n1Cc1ccccc1` [Compound 531, 1-benzyl-N6-(4-methoxyphenyl)-N2-methyl-imidazo[4,5-c]pyridine-2,6-diamine], for which the Emax lay in the range of 30 to 50%.
To `CNc1nc2cnc(Nc3cc(OC)c(OC)c(OC)c3)cc2n1Cc1cccnc1` [Compound 559, N2-methyl-1-(3-pyridylmethyl)-N6-(3,4,5-trimethoxyphenyl)imidazo[4,5-c]pyridine-2,6-diamine] belongs 50 to 100%.
For the molecule `COc1cc(Nc2nccc3c2cc(-c2ccc(C(=O)N(C)C)cc2)n3C)cc(C(F)(F)F)c1` [Compound 220, N,N-dimethyl-4-[1-methyl-4-(3-methoxy-5-(trifuloromethyl)phenylamino)pyrrolo[3,2-c]pyridin-2-yl]benzamide], the Emax was 0 to 30%.
As for `Cc1ccc(-c2nc3ccncc3[nH]2)cc1` [Compound 774, 2-(p-tolyl)-3H-imidazo[4,5-c]pyridine], the Emax lay within 0 to 30%.
To `COc1ccc(Nc2cc3c(cn2)nc(-c2ccccc2)n3C)c(OC)c1` [Compound 703, N-(2,4-dimethoxyphenyl)-1-methyl-2-phenyl-imidazo[4,5-c]pyridin-6-amine] belongs 30 to 50%; to `CS(=O)(=O)Nc1cccc(Nc2nccc3[nH]c(-c4cccc(F)c4)cc23)c1` [Compound 205, N-[3-[[2-(3-fluorophenyl)-1H-pyrrolo[3,2-c]pyridin-4-yl]amino]phenyl]methanesulfonamide], 50 to 100%; to `CNc1nc2cnc(Nc3ccc4c(c3)OCCO4)cc2n1CC1CC1` [Compound 570, 1-(cyclopropylmethyl)-N6-(2,3-dihydro-1,4-benzodioxin-6-yl)-N2-methyl-imidazo[4,5-c]pyridine-2,6-diamine], 30 to 50%.
As for `CN(C)c1cccc(Nc2cc3[nH]c(-c4cncn4C)cc3cn2)c1` [Compound 104, N1,N1-dimethyl-N3-[2-(3-methylimidazol-4-yl)-1H-pyrrolo[3,2-c]pyridin-6-yl]benzene-1,3-diamine], the figure is 50 to 100%; as for `CC(=O)N(C)c1cccc(-c2cc3cnc(Nc4ccc(N5CCOCC5)cc4)cc3n2C)c1` [Compound 163, N-methyl-N-[3-[1-methyl-6-(4-morpholinoanilino)pyrrolo[3,2-c]pyridin-2-yl]phenyl]acetamide], 50 to 100%; as for `CNc1nc2cnc(-c3ccc(O)c(OC)c3)cc2n1Cc1ccccc1` [Compound 797, 4-[1-benzyl-2-(methylamino)imidazo[4,5-c]pyridin-6-yl]-2-methoxy-phenol], 30 to 50%.
As for `CC(=O)c1cccc(Nc2nccc3[nH]c(-c4ccsc4)cc23)c1` [Compound 267, 1-[3-[[2-(3-thienyl)-1H-pyrrolo[3,2-c]pyridin-4-yl]amino]phenyl]ethanone], the figure is 50 to 100%; as for `Cn1nc(C(C)(C)C)cc1Nc1cc2c(cn1)ncn2Cc1ccco1` [Compound 776, N-(5-tert-butyl-2-methyl-pyrazol-3-yl)-1-(2-furylmethyl)imidazo[4,5-c]pyridin-6-amine], 0 to 30%.
Turning to `COc1ccccc1-c1cc2c(Nc3ccncc3)nccc2[nH]1` [Compound 295, 2-(2-methoxyphenyl)-N-(4-pyridyl)-1H-pyrrolo[3,2-c]pyridin-4-amine], the Emax was 50 to 100%.
To `CC(=O)Nc1ccc(Nc2cc3c(cn2)nc(-c2ccccc2)n3C)cc1` [Compound 702, N-[4-[(1-methyl-2-phenyl-imidazo[4,5-c]pyridin-6-yl)amino]phenyl]acetamide] belongs 50 to 100%; to `CN(C)C(=O)c1ccc(-c2cc3cnc(Nc4cccc(O)c4)cc3[nH]2)cc1` [Compound 31, 4-[6-(3-hydroxyanilino)-1H-pyrrolo[3,2-c]pyridin-2-yl]-N,N-dimethyl-benzamide], > 100%.
